For 10 compounds, Normal boiling temperature results are on record in the NIST ThermoML archive (doi:10.1016/j.tca.2014.11.027).

Each structure is given as a SMILES string. ± gives the expanded uncertainty stated by the source.

For this data set the following is noted: Liquid; Gas Chromatography.
On to `CCCCCOP(=O)(CCCCC)OCCCCC` [dipentyl pentylphosphonate], for which the Normal boiling temperature came to 332.64 ± 2 °C.

As for `CCCCP(=O)(OCCC(C)C)OCCC(C)C` [diisopentyl butylphosphonate], the Normal boiling temperature stood at 306.90 ± 2 °C.

For the compound `CCCCCCP(=O)(OCCCCC)OCCCCC` [dipentyl hexylphosphonate], the Normal boiling temperature was determined as 344.43 ± 2 °C.

Turning to `CCCCCP(=O)(OCCCC)OCCCC` [dibutyl pentylphosphonate], the Normal boiling temperature was found to be 306.70 ± 2 °C.

As for `CCCCCP(=O)(OCCC(C)C)OCCC(C)C` [diisopentyl pentylphosphonate], the Normal boiling temperature was 321.52 ± 2 °C.

On to `CCCCCOP(=O)(CCCC)OCCCCC` [dipentyl butylphosphonate], for which the Normal boiling temperature came to 319.84 ± 2 °C.

As for `CCCCCCP(=O)(OCCC(C)C)OCCC(C)C` [diisopentyl hexylphosphonate], the Normal boiling temperature was found to be 332.33 ± 2 °C.

In the case of `CCCCCCCCP(=O)(OCCCC)OCCCC` [dibutyl octylphosphonate], the Normal boiling temperature came to 332.96 ± 2 °C.

On to `CCCCOP(=O)(CCCC)OCCCC` [dibutyl butanephosphonate], for which the Normal boiling temperature worked out at 292.92 ± 2 °C.

Turning to `CCCCCCP(=O)(OCCCC)OCCCC` [dibutyl hexylphosphonate], the Normal boiling temperature was determined as 319.92 ± 2 °C.
